ChEMBL document CHEMBL4261633, “Butenolides from a marine-derived fungus Aspergillus terreus with antitumor activities against pancreatic ductal adenocarcinoma cells” (Bioorg Med Chem, 2018)
Values belong to the molecule of their own block, whether it stands above or below them. Activity calls are given as the source filed them. No cut-off for these calls is given here.

Experiments:
HCC1806 = assay: Antiproliferative activity against human HCC1806 cells after 24 hrs by CCK8 assay; format: functional, cell-based; conditions: HCC1806, 24 h
BEAS-2B = assay: Antiproliferative activity against human BEAS2B cells after 24 hrs by CCK8 assay; format: functional, cell-based
HT-29 = assay: Antiproliferative activity against human HT-29 cells after 24 hrs by CCK8 assay; format: functional, cell-based; conditions: HT-29, 24 h
HepG2 = assay: Antiproliferative activity against human HepG2 cells after 24 hrs by CCK8 assay; format: functional, cell-based; conditions: HepG2, 24 h
PANC-1 [1] = assay: Antiproliferative activity against human PANC1 cells after 24 hrs by CCK8 assay; format: functional, cell-based; conditions: PANC-1, 24 h
PANC-1 [2] = assay: Induction of apoptosis in human PANC1 cells assessed as late apoptotic cells at 15 uM after 24 hrs by FITC-Annexin V/propidium iodide staining-based flow cytometric analysis (reference value: 0.0 to 0.7%); format: functional
PANC-1 [3] = assay: Cell cycle arrest in human PANC1 cells assessed as accumulation at S phase at 5 uM after 24 hrs by RNAase/propidium iodide staining-based flow cytometric analysis (reference value: 11.66 to 19.02%); format: functional
PANC-1 [4] = assay: Induction of apoptosis in human PANC1 cells assessed as late apoptotic cells at 25 uM after 24 hrs by FITC-Annexin V/propidium iodide staining-based flow cytometric analysis (reference value: 0.0 to 0.7%); format: functional
PANC-1 [5] = assay: Induction of apoptosis in human PANC1 cells assessed as necrotic cells at 25 uM after 24 hrs by FITC-Annexin V/propidium iodide staining-based flow cytometric analysis (reference value: 0.7 to 1.4%); format: functional
PANC-1 [6] = assay: Cell cycle arrest in human PANC1 cells assessed as accumulation at G1 phase at 15 uM after 24 hrs by RNAase/propidium iodide staining-based flow cytometric analysis (reference value: 67.93 to 75.87%); format: functional
PANC-1 [7] = assay: Cell cycle arrest in human PANC1 cells assessed as accumulation at G2/M phase at 15 uM after 24 hrs by RNAase/propidium iodide staining-based flow cytometric analysis (reference value: 6.83 to 11.82%); format: functional
PANC-1 [8] = assay: Cell cycle arrest in human PANC1 cells assessed as accumulation at G1 phase at 5 uM after 24 hrs by RNAase/propidium iodide staining-based flow cytometric analysis (reference value: 67.93 to 75.87%); format: functional
PANC-1 [9] = assay: Induction of apoptosis in human PANC1 cells assessed as nuclear fragmentation at 25 uM after 24 hrs by Hoechst 33258 staining based fluorescence microscopic analysis; format: functional, cell-based
PANC-1 [10] = assay: Induction of apoptosis in human PANC1 cells assessed as early apoptotic cells at 10 uM after 24 hrs by FITC-Annexin V/propidium iodide staining-based flow cytometric analysis (reference value: 0.5 to 3.2%); format: functional
PANC-1 [11] = assay: Induction of apoptosis in human PANC1 cells assessed as necrotic cells at 5 uM after 24 hrs by FITC-Annexin V/propidium iodide staining-based flow cytometric analysis (reference value: 0.7 to 1.4%); format: functional
PANC-1 [12] = assay: Induction of apoptosis in human PANC1 cells assessed as viable cells at 15 uM after 24 hrs by FITC-Annexin V/propidium iodide staining-based flow cytometric analysis (reference value: 94.7 to 98.7%); format: functional; conditions: PANC-1, 24 h, read-out: Activity
PANC-1 [13] = assay: Cell cycle arrest in human PANC1 cells assessed as accumulation at G2/M phase at 10 uM after 24 hrs by RNAase/propidium iodide staining-based flow cytometric analysis (reference value: 6.83 to 11.82%); format: functional
PANC-1 [14] = assay: Induction of apoptosis in human PANC1 cells assessed as nuclear shrinkage at 5 uM after 24 hrs by Hoechst 33258 staining based fluorescence microscopic analysis; format: functional, cell-based
PANC-1 [15] = assay: Cell cycle arrest in human PANC1 cells assessed as accumulation at S phase at 15 uM after 24 hrs by RNAase/propidium iodide staining-based flow cytometric analysis (reference value: 11.66 to 19.02%); format: functional
PANC-1 [16] = assay: Induction of apoptosis in human PANC1 cells assessed as nuclear chromatin condensation at 5 uM after 24 hrs by Hoechst 33258 staining based fluorescence microscopic analysis; format: functional, cell-based
PANC-1 [17] = assay: Induction of apoptosis in human PANC1 cells after 24 hrs by FITC-Annexin V/propidium iodide staining-based flow cytometric analysis; format: functional, cell-based
PANC-1 [18] = assay: Induction of apoptosis in human PANC1 cells assessed as necrotic cells at 15 uM after 24 hrs by FITC-Annexin V/propidium iodide staining-based flow cytometric analysis (reference value: 0.7 to 1.4%); format: functional
PANC-1 [19] = assay: Induction of apoptosis in human PANC1 cells assessed as early apoptotic cells at 15 uM after 24 hrs by FITC-Annexin V/propidium iodide staining-based flow cytometric analysis (reference value: 0.5 to 3.2%); format: functional
PANC-1 [20] = assay: Cell cycle arrest in human PANC1 cells assessed as accumulation at G1 phase at 10 uM after 24 hrs by RNAase/propidium iodide staining-based flow cytometric analysis (reference value: 67.93 to 75.87%); format: functional
PANC-1 [21] = assay: Induction of apoptosis in human PANC1 cells assessed as nuclear fragmentation at 5 uM after 24 hrs by Hoechst 33258 staining based fluorescence microscopic analysis; format: functional, cell-based
PANC-1 [22] = assay: Induction of apoptosis in human PANC1 cells assessed as viable cells at 25 uM after 24 hrs by FITC-Annexin V/propidium iodide staining-based flow cytometric analysis (reference value: 94.7 to 98.7%); format: functional; conditions: PANC-1, 24 h, read-out: Activity
PANC-1 [23] = assay: Induction of apoptosis in human PANC1 cells assessed as late apoptotic cells at 5 uM after 24 hrs by FITC-Annexin V/propidium iodide staining-based flow cytometric analysis (reference value: 0.0 to 0.7%); format: functional
PANC-1 [24] = assay: Induction of apoptosis in human PANC1 cells assessed as necrotic cells at 10 uM after 24 hrs by FITC-Annexin V/propidium iodide staining-based flow cytometric analysis (reference value: 0.7 to 1.4%); format: functional
PANC-1 [25] = assay: Induction of apoptosis in human PANC1 cells assessed as nuclear shrinkage at 25 uM after 24 hrs by Hoechst 33258 staining based fluorescence microscopic analysis; format: functional, cell-based
PANC-1 [26] = assay: Induction of apoptosis in human PANC1 cells assessed as nuclear chromatin condensation at 25 uM after 24 hrs by Hoechst 33258 staining based fluorescence microscopic analysis; format: functional, cell-based
PANC-1 [27] = assay: Cell cycle arrest in human PANC1 cells assessed as accumulation at G2/M phase at 25 uM after 24 hrs by RNAase/propidium iodide staining-based flow cytometric analysis (reference value: 6.83 to 11.82%); format: functional
PANC-1 [28] = assay: Induction of apoptosis in human PANC1 cells assessed as late apoptotic cells at 10 uM after 24 hrs by FITC-Annexin V/propidium iodide staining-based flow cytometric analysis (reference value: 0.0 to 0.7%); format: functional
PANC-1 [29] = assay: Induction of apoptosis in human PANC1 cells assessed as viable cells at 5 uM after 24 hrs by FITC-Annexin V/propidium iodide staining-based flow cytometric analysis (reference value: 94.7 to 98.7%); format: functional; conditions: PANC-1, 24 h, read-out: Activity
PANC-1 [30] = assay: Cell cycle arrest in human PANC1 cells assessed as accumulation at S phase at 25 uM after 24 hrs by RNAase/propidium iodide staining-based flow cytometric analysis (reference value: 11.66 to 19.02%); format: functional
PANC-1 [31] = assay: Cell cycle arrest in human PANC1 cells assessed as accumulation at S phase at 10 uM after 24 hrs by RNAase/propidium iodide staining-based flow cytometric analysis (reference value: 11.66 to 19.02%); format: functional
PANC-1 [32] = assay: Cell cycle arrest in human PANC1 cells assessed as accumulation at G2/M phase at 5 uM after 24 hrs by RNAase/propidium iodide staining-based flow cytometric analysis (reference value: 6.83 to 11.82%); format: functional
PANC-1 [33] = assay: Cell cycle arrest in human PANC1 cells assessed as accumulation at G1 phase at 25 uM after 24 hrs by RNAase/propidium iodide staining-based flow cytometric analysis (reference value: 67.93 to 75.87%); format: functional
PANC-1 [34] = assay: Induction of apoptosis in human PANC1 cells assessed as viable cells at 10 uM after 24 hrs by FITC-Annexin V/propidium iodide staining-based flow cytometric analysis (reference value: 94.7 to 98.7%); format: functional; conditions: PANC-1, 24 h, read-out: Activity
PANC-1 [35] = assay: Induction of apoptosis in human PANC1 cells assessed as early apoptotic cells at 5 uM after 24 hrs by FITC-Annexin V/propidium iodide staining-based flow cytometric analysis (reference value: 0.5 to 3.2%); format: functional
PANC-1 [36] = assay: Induction of apoptosis in human PANC1 cells assessed as early apoptotic cells at 25 uM after 24 hrs by FITC-Annexin V/propidium iodide staining-based flow cytometric analysis (reference value: 0.5 to 3.2%); format: functional

IC50 (HCC1806): > 20 µM
IC50 (HT-29): > 20 µM
IC50 (HepG2): > 20 µM
IC50 (PANC-1 [1]): > 20 µM
SMILES: COC(=O)[C@]1(Cc2ccc3c(c2)CC(C(C)(C)O)O3)OC(=O)C(O)=C1c1ccccc1 (some centres undefined)
IC50 (BEAS-2B): > 20 µM

IC50 (HCC1806): > 20 µM
IC50 (HT-29): > 20 µM
IC50 (HepG2): > 20 µM
IC50 (PANC-1 [1]): > 20 µM
SMILES: COC(=O)[C@]1(Cc2ccc3c(c2)C[C@H](C(C)(C)O)O3)OC(=O)C(O)=C1c1ccc(O)cc1 [BUTYROLACTONE IV]
IC50 (BEAS-2B): > 20 µM

Continued, molecule first:

SMILES: COC(=O)[C@]1(Cc2ccc3c(c2)C=CC(C)(C)O3)OC(=O)C(O)=C1c1ccc(O)cc1
IC50 (HCC1806): > 20 µM
IC50 (BEAS-2B): > 20 µM
IC50 (HT-29): > 20 µM
IC50 (HepG2): > 20 µM
IC50 (PANC-1 [1]): > 20 µM

SMILES: COC(=O)[C@]1(Cc2ccc(O)c(C[C@@H](O)C(C)C)c2)OC(=O)C(O)=C1c1ccc(O)cc1
IC50 (HCC1806): > 20 µM
IC50 (BEAS-2B): > 20 µM
IC50 (HT-29): > 20 µM
IC50 (HepG2): > 20 µM
IC50 (PANC-1 [1]): > 20 µM

SMILES: COC(=O)[C@]1(Cc2ccc(O)c(CC=C(C)C)c2)OC(=O)C(O)=C1c1ccc(O)c(CC=C(C)C)c1
Activity (PANC-1 [2]): 0.7%
Activity (PANC-1 [3]): 35.11%
Activity (PANC-1 [4]): 11.6%
IC50 (HCC1806): 17.6 µM
Activity (PANC-1 [5]): 1.3%
Activity (PANC-1 [6]): 20.44%
Activity (PANC-1 [7]): 38.12%
Activity (PANC-1 [8]): 49.89%
Activity (PANC-1 [9]): Active
Activity (PANC-1 [10]): 9.3%
Activity (PANC-1 [11]): 0.2%
viability at 15 µM (PANC-1 [12]): 49.1%
Activity (PANC-1 [13]): 10.09%
Activity (PANC-1 [14]): Active
Activity (PANC-1 [15]): 38.47%
Activity (PANC-1 [16]): Active
Activity (PANC-1 [17]): Dose-dependent effect
Activity (PANC-1 [18]): 1.6%
Activity (PANC-1 [19]): 48.5%
Activity (PANC-1 [20]): 45.36%
Activity (PANC-1 [21]): Active
viability at 25 µM (PANC-1 [22]): 44.5%
Activity (PANC-1 [23]): 0.3%
IC50 (BEAS-2B): > 20 µM
Activity (PANC-1 [24]): 1.6%
Activity (PANC-1 [25]): Active
IC50 (HT-29): > 20 µM
Activity (PANC-1 [26]): Active
IC50 (HepG2): 9 µM
Activity (PANC-1 [27]): 35.78%
Activity (PANC-1 [28]): 1.2%
IC50 (PANC-1 [1]): 5.3 µM
viability at 5 µM (PANC-1 [29]): 94.7%
Activity (PANC-1 [30]): 41.26%
Activity (PANC-1 [31]): 38.96%
Activity (PANC-1 [32]): 14.43%
Activity (PANC-1 [33]): 20.46%
viability at 10 µM (PANC-1 [34]): 87.9%
Activity (PANC-1 [35]): 4.8%
Activity (PANC-1 [36]): 42.7%

SMILES: CC(=O)O[C@H]1C(=O)[C@@]2(C)[C@H]([C@H](OC(=O)c3ccccc3)[C@]3(O)C[C@H](OC(=O)[C@H](O)[C@@H](NC(=O)c4ccccc4)c4ccccc4)C(C)=C1C3(C)C)[C@]1(OC(C)=O)CO[C@@H]1C[C@@H]2O [PACLITAXEL]
IC50 (HCC1806): 0.001 µM
IC50 (BEAS-2B): 0.007 µM
IC50 (HepG2): 0.009 µM
IC50 (PANC-1 [1]): 0.04 µM
